How the values were obtained:
A. baumannii 7226/16 = assay: microbe, parasite or virus in culture; format: cell-based, Acinetobacter baumannii; conditions: antiseptics and surfactants; MHB, overnight 37 °C; median of 3–4 independent experiments; prontosan as polyhexanide
Procedure: (§1) In this regard the test plates were preincubated for 1 h at 37 °C with 0.1% bovine serum albumin (BSA) in distilled water before use. Bacteria were grown overnight at 37 °C with shaking in 2.1% Müller–Hinton broth (MHB), and then a small aliquot was transferred into the fresh portion of the same medium for another 2–3 h on the day of the experiment to provide us with the log phase bacterial suspension. Concentration of bacterial cells in suspension was evaluated based on absorbance at 620 nm and diluted down to 1 × 10^6 CFU/mL with MHB. Equal volumes of the prepared bacterial suspension in MHB and two-fold serial dilutions of the antimicrobials in 10 mM sodium phosphate (Na-P) buffer (pH 7.4) with 0.1% BSA were mixed and incubated overnight at 37 °C. The lowest concentration where no bacterial growth was observed the next day under visual examination was considered the minimal inhibitory concentration. The test was repeated at least three times, and the final MIC value was established as a median result. Each experiment was conducted in triplicates. Terasaki microplates (10 µL end volume, V-shaped bottom; Sarstedt, Nümbrecht, Germany) were used.

[1] = test system: drug-resistant clinical isolates and E. coli ML-35p; assay: Checkerboard titration, all tested bacteria together; format: cell-based; conditions: planktonic bacteria
Procedure: The mode of interaction of the test substances while applied in combinations was analyzed based on the calculation of the fractional (or combination) indices—the mathematical “embodiment” of the Loewe additivity paradigm that we used for the classification of combination effects in this study. As synergy is generally defined as a greater than additive effect, and antagonism as a lower than additive effect, the main problem is to establish a reference level for this additive effect. The Loewe approach uses the idea of the self-additivity of an individual substance; thus, the individual activity may be regarded as an additivity control. To identify additivity, synergy, or antagonism in Loewe terms, one should choose a fixed level of the studied effect and then compare the doses of individual substances required to reach this level, with the fractional doses of the substances in combination providing the same level of the effect.
In the case of activity testing of combinations toward planktonic bacteria, a checkerboard titration scheme was used to create an array of mixtures of the two substances (A and B) in various concentrations by diluting the first one two-fold row-by-row and the second one column-by-column. The left column and the bottom row contained the dilutions of only one substance (A or B) to control their individual activity levels in every experiment. […]

P. aeruginosa MDR 522/17 = assay: microbe, parasite or virus in culture; format: cell-based, Pseudomonas aeruginosa; conditions: antiseptics and surfactants; MHB, overnight 37 °C; median of 3–4 independent experiments; prontosan as polyhexanide
Procedure: as §1

E. coli ESBL 521/17 = assay: microbe, parasite or virus in culture; format: cell-based, Escherichia coli; conditions: antiseptics and surfactants; MHB, overnight 37 °C; median of 3–4 independent experiments; prontosan as polyhexanide
Procedure: as §1

[2] = test system: K. pneumoniae ESBL 344/17; assay: microbe, parasite or virus in culture; format: cell-based, Klebsiella pneumoniae; conditions: antiseptics and surfactants; MHB, overnight 37 °C; median of 3–4 independent experiments; prontosan as polyhexanide
Procedure: as §1

E. coli ML-35p = assay: Broth microdilution assay (MIC, planktonic bacteria); format: cell-based, Escherichia coli; conditions: antiseptics and surfactants; MHB, overnight 37 °C; median of 3–4 independent experiments; prontosan as polyhexanide
Procedure: as §1

S. aureus 1399/17 = assay: microbe, parasite or virus in culture; format: cell-based, Staphylococcus aureus; conditions: antiseptics and surfactants; MHB, overnight 37 °C; median of 3–4 independent experiments; prontosan as polyhexanide
Procedure: as §1

bacteria = conditions: cited from earlier work
Description: Among surfactants, as was expected based on the literature data, sodium lauroyl sarcosinate was the most universally active toward bacteria. […] This is especially interesting in light of the fact that prontosan has an amidopopyl betaine in its composition alongside the poly ...

SMILES | MIC (A. baumannii 7226/16) | Type of interaction with AMPs, antibacterial effect of combinations [1] | MIC (P. aeruginosa MDR 522/17) | MIC (E. coli ESBL 521/17) | MIC [2] | MIC (E. coli ML-35p) [µg/mL] | MIC (S. aureus 1399/17) | MICs by disk-diffusion method (bacteria) [mg/mL]
[Na+].[O-]Cl [Sodium hypochlorite] | 2500 µg/mL | antagonistic interaction | 5000 µg/mL | 5000 µg/mL | 5000 µg/mL | 5000 | 10,000 µg/mL | –
CCCCCCCCCCCC(=O)N(C)CC(=O)[O-].[Na+] [Sodium lauroyl sarcosinate] | 25,000 µg/mL | antagonistic interaction | 50,000 µg/mL | 12,500 µg/mL | 12,500 µg/mL | 6250 | >50,000 µg/mL | 37.5 to 300
